From ChEMBL document CHEMBL1201862, “PubChem BioAssay data set” (2004)
Values belong to the molecule of their own block, whether it stands above or below them. The source made the active and inactive calls. Non-standard residues stand in square brackets, D forms with d. Residues, ends and D or L forms follow the SMILES beside them. ξ: configuration not given here. *: point of attachment. Trx = NC[C@H]1CC[C@H](C(=O)O)CC1; Tic = O=C(O)[C@@H]1Cc2ccccc2CN1; Ile(3ξ) = CCC(C)[C@H](N)C(=O)O; Boc = CC(C)(C)OC(=O)*

Key:
[1] = Shn3 3'UTR reporter inhibitors, dose response, cell-based, Clone20 osteoblasts, firefly luciferase, cherry-picked (AID 624132); type: functional;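 note: firefly luciferase luminescence from reporter carrying the Shn3 3'UTR in osteoblasts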
[2] = HepG2 cell cytotoxicity, dose response, cytotoxicity control for Shn3 inhibitor project, CellTiter-Glo, cherry-picked (AID 624134); type: functional, cell-based
[3] = control 3'UTR Renilla luciferase suppression, dose response, counter-screen for Shn3 inhibitor project, cell-based, Clone20-Shn3RL, cherry-picked (AID 624133); type: functional
[4] = miR-122 activators in hepatoma reporter cells, dose response, cell-based, Huh7 psiCHECK-miR122, Renilla luciferase, cherry-picked (AID 651956); type: functional;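 note: huh7 hepatoma cells stably carrying a psiCHECK-2 miR-122 sensor plasmid; renilla luciferase signal reporting endogenous miR-122 activity after 48 h compound exposure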
[5] = molecular target: T1, Carboxy-terminal domain RNA polymerase II polypeptide A small phosphatase 1 (Homo sapiens, UniProt Q9GZU7); test: inhibitors of CTDSP1, concentration-response testing, biochemical assay, absorbance-based, actives from ultra-high-throughput screening (AID 540297); type: functional
T1 sequence (Q9GZU7 whole entry): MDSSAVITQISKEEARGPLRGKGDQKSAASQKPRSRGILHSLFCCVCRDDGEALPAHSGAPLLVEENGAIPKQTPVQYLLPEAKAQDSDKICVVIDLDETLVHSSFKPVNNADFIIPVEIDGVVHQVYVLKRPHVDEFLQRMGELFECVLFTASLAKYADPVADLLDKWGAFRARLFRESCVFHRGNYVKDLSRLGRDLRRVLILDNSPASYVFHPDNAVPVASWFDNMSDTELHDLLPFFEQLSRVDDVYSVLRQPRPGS

[6] = NIH-3T3 fibroblast cytotoxicity, dose response, cytotoxicity control, cell-based, fluorescence, Alamar Blue, secondary assay (AID 2327); type: functional;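 note: NIH-3T3 mouse fibroblasts cultured with fluconazole at 8 µg/mL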
[7] = C. albicans growth with fluconazole, confirmation, fluorescence, retest (AID 2467); type: functional, cell-based
[8] = molecular target: T2, High affinity choline transporter 1 (Homo sapiens, UniProt Q9GZV3); test: CHT inhibitors, dose response, cell-based, 5-point CRC, membrane potential dye (AID 504840); type: functional
T2 sequence (Q9GZV3 whole entry): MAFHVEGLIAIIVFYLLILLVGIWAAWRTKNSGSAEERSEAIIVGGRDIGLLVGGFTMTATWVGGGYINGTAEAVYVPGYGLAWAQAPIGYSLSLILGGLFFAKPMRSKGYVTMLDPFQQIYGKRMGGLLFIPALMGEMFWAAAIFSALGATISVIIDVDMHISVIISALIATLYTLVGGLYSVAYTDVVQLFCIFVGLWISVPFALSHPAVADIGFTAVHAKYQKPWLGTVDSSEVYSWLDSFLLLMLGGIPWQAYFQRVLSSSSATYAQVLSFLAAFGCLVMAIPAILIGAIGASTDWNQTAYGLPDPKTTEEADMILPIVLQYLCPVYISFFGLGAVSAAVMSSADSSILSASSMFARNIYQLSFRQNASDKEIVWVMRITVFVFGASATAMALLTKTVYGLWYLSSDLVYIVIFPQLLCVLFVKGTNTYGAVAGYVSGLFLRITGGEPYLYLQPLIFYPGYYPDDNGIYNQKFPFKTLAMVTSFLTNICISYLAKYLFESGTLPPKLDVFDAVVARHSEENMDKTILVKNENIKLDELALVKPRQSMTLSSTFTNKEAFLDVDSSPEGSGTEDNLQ

[9] = molecular target: Cytochrome P450 2D6 (Homo sapiens, UniProt P10635);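 note: CYP2D6 member of a cytochrome P450 panel assay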
[10] = molecular target: Cytochrome P450 3A4 (Homo sapiens, UniProt P08684);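 note: CYP3A4 tested as one member of a cytochrome P450 panel screen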
[11] = molecular target: Cytochrome P450 2C9 (Homo sapiens, UniProt P11712)
[12] = molecular target: T3, Corticotropin-releasing factor receptor 2/Corticotropin-releasing factor-binding protein (Homo sapiens, UniProt P24387+Q13324); test: Dose Response confirmation of uHTS hits for small molecule antagonists of the CRF-binding protein and CRF-R2 receptor complex.; type: functional; conditions: read-out: IC50_Mean
T3 sequence (Q13324 whole entry): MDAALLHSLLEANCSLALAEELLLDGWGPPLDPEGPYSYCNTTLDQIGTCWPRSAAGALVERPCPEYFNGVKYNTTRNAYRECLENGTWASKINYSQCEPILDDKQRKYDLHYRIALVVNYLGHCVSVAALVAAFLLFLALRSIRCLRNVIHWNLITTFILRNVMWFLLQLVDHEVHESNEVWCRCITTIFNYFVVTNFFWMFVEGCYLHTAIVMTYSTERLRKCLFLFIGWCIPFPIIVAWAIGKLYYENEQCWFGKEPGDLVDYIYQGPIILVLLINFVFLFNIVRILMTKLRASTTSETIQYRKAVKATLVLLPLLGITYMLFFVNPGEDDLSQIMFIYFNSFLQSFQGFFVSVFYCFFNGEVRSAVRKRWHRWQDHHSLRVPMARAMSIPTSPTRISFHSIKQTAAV
T3 sequence (P24387 whole entry): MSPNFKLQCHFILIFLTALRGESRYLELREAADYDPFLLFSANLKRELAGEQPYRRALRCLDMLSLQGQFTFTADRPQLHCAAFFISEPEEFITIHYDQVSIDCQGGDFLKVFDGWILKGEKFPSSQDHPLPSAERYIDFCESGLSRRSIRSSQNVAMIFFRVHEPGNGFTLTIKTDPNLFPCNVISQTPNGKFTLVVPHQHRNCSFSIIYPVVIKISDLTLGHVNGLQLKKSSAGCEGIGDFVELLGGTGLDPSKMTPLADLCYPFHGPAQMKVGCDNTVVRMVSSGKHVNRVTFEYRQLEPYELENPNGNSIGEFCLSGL

[13] = molecular target: T3, Corticotropin-releasing factor receptor 2/Corticotropin-releasing factor-binding protein; test: activators of CRF receptor 2 with binding protein – uHTS hits, confirmation (AID 602473); type: functional; conditions: read-out: EC50_Mean
[14] = molecular target: T4, DNA repair protein RAD52 homolog (Homo sapiens, UniProt P43351); type: functional, biochemical
T4 sequence (P43351 whole entry): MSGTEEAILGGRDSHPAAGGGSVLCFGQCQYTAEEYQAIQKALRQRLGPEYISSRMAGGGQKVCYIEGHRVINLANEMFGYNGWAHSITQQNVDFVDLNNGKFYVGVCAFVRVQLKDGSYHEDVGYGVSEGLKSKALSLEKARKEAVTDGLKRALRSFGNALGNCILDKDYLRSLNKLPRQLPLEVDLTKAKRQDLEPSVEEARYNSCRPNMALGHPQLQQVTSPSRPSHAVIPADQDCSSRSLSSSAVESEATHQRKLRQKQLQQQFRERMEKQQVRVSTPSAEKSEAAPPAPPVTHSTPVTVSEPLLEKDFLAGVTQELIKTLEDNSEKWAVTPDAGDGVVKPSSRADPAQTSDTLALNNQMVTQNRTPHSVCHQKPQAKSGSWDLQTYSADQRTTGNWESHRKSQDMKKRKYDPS

Sequence of Cytochrome P450 2C9 (P11712 whole entry): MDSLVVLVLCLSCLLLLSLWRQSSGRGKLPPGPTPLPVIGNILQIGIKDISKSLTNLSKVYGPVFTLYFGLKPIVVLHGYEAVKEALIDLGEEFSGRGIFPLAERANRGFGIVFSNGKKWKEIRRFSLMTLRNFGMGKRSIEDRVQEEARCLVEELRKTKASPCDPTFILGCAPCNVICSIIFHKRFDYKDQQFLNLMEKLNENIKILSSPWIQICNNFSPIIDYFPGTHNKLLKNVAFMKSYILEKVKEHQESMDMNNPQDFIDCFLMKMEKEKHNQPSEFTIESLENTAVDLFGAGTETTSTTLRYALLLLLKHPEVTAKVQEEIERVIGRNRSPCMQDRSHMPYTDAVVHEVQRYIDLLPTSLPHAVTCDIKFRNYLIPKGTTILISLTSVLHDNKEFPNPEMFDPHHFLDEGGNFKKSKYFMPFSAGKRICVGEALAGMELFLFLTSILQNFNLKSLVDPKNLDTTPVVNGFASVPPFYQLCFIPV
Sequence of Cytochrome P450 3A4 (P08684 whole entry): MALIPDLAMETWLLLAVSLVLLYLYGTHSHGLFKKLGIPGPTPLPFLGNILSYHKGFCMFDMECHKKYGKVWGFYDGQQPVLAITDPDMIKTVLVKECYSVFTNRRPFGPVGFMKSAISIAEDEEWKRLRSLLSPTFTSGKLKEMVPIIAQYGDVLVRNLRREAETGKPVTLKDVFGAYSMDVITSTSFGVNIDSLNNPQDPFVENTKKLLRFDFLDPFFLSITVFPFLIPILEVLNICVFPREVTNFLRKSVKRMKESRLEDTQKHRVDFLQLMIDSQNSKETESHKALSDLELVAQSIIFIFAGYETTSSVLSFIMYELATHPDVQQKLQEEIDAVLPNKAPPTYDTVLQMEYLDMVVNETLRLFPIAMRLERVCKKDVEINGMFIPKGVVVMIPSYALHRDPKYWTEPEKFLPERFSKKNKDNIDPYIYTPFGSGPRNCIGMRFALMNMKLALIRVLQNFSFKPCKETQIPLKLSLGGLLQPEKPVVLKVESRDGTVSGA
Sequence of Cytochrome P450 2D6 (P10635 whole entry): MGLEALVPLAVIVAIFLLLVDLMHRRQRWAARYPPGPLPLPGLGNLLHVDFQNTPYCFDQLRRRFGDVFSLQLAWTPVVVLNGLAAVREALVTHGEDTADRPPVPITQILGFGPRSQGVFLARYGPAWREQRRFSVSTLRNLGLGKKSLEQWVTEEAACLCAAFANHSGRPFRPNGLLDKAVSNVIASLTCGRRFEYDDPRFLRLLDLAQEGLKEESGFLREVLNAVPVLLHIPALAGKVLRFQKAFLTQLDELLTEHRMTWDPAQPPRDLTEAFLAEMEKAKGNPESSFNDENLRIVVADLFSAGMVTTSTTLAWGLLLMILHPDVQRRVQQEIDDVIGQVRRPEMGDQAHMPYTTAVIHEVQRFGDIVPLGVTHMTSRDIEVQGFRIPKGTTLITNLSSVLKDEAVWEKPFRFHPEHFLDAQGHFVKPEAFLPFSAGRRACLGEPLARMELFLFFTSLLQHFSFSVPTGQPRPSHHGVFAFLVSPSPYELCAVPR

AC50 [9]: 39.8 µM (inconclusive) | AC50 [10]: 15.8 µM (inconclusive) | AC50 [11]: 20 µM (inconclusive)
Compound: Cc1nc2cnc(Nc3ccccc3)nc2n(C)c1=O

IC50 [5]: 7.59 µM (active)
Compound: O=C(O)c1cccc2c1C(=O)N(c1ccc3c(c1)Cc1ccccc1-3)C2=O

IC50 [12]: > 47.1 µM (inactive) | EC50 [13]: > 53 µM (inactive)
Compound: O=C(NCCCO)C(=O)Nc1cc2c3c(c1)CCN3C(=O)CC2

IC50 [5]: 10.8 µM (active)
Compound: Cc1ccn2c(=O)nc(SCC(=O)NCc3ccco3)nc2c1

IC50 [5]: 4.49 µM (active)
Compound: Cc1ccc(Cl)cc1NC(=O)CSc1sc2c(O)cc(O)nc2c1C#N

IC50 [8]: 13.2 µM (active)
Compound: Cc1csc(=N)n1CC(=O)N1CCc2ccccc21

Further lines, the molecule ahead of its results:

Compound: O=C(NNC(=O)C1CCN(S(=O)(=O)c2ccc(Cl)cc2)CC1)c1ccccc1O
AC50 [1]: 18.5 µM (active) | AC50 [2]: 63.1 µM (active) | AC50 [3]: 6.86 µM (active)

Compound: C[C@@H]1CN([C@H](C)CO)S(=O)(=O)c2ccc(C3=CCCCC3)cc2O[C@@H]1CN(C)C(=O)Cc1ccncc1
AC50 [4]: 8.26 µM (active)

Compound: O=C(O)CCNc1ccc(Cl)cc1
IC50 [5]: 16.9 µM (active)

Compound: Cc1ccc(C2CC2C(=O)NN=C(S)Nc2cccc(Cl)c2)cc1 (configuration not stated)
EC50 [6]: > 160 µM (inactive) | EC50 [7]: > 38 µM (not active) | IC50 [8]: 15.8 µM (active)

Compound: CC(C)C[C@@H](CN1CCCC1CN1C(=S)NC[C@@H]1Cc1ccc(O)cc1)N1C[C@H](Cc2ccc(O)cc2)N(CC2CCCCCC2)C1=S (some centres not stated)
AC50 [1]: 18.8 µM (active) | AC50 [2]: 22.7 µM (active) | AC50 [3]: 16.9 µM (active)

Compound: COCCn1nnnc1C(c1ccccc1)N1CCN(c2ccccc2)CC1 (configuration not stated)
IC50 [12]: > 47.1 µM (inactive) | EC50 [13]: > 53 µM (inactive)

Compound: CCC(C)[C@H](NC(=O)[C@@H]1Cc2ccccc2CN1C(=O)OC(C)(C)C)C(=O)NC[C@H]1CC[C@H](C(=O)O)CC1 (some centres not stated) (Boc-[Tic]-[Ile(3ξ)]-[Trx]-OH)
IC50 [12]: > 47.1 µM (inactive) | EC50 [13]: > 53 µM (inactive)

Compound: O=C(Nc1ccccc1C(F)(F)F)NC1(C(=O)N2CCOCC2)CCCCC1
IC50 [5]: 4.66 µM (active)

Compound: N=C(N)SCc1ccccn1
IC50 [8]: 13.2 µM (active)

Compound: CC(C)(C)NC(=O)C(c1ccc(O)cc1)N(Cc1ccc2c(c1)OCO2)C(=O)CCl (configuration not stated)
IC50 [12]: > 47.1 µM (inactive) | EC50 [13]: > 53 µM (inactive)

Compound: CCCCN(C(=O)c1ccc2c(c1)S(=O)(=O)N=C1CCCCCN12)c1c(N)n(CCCC)c(=O)[nH]c1=O
IC50 [12]: > 47.1 µM (inactive) | EC50 [13]: > 53 µM (inactive)

Compound: COc1cccc(-c2ccc3c(c2)O[C@H](CN(C)C(=O)C2CCOCC2)[C@H](C)CN([C@@H](C)CO)S3(=O)=O)c1
AC50 [4]: 6.42 µM (active)

Compound: Cc1cc(N2CCC(N(C)C3CCCC3)CC2)nc2cc(O)ccc12
AC50 [14]: 11.3 µM (active)
